kon and Kd data for one compound are collected here from publication PMC3172300, “Modulation of Catalytic Activity in Multi-Domain Protein Tyrosine Phosphatases” (PLoS ONE, 2011).

Positions count from the first letter of the chain named. Where two headings read alike, the source gives them in different places. Square brackets hold non-standard residues; d marks the D form. Peptide text beside a SMILES is read from it. pY = N[C@@H](Cc1ccc(OP(=O)(O)O)cc1)C(=O)O

The target in one assay is T1, DLAR D1 (Drosophila melanogaster, UniProt P16621).
T1 construct: DLAR 1448-1746; His tag (pET-15b or pET-22b); made in house; host or cells: E. coli BL21(DE3)
T1 sequence (P16621 1448-1746): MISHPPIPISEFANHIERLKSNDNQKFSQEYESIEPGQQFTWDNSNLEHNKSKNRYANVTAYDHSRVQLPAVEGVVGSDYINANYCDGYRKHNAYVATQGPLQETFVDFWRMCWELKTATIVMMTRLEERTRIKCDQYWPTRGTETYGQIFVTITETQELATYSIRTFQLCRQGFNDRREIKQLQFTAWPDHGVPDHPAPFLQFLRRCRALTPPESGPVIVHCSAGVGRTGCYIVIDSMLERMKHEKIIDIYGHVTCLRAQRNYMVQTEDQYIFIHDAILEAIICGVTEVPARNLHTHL
Description: Surface Plasmon Resonance peptide binding, DLAR D1. Conditions: column first binding site, single-site model. How it is done: (§1) The binding of phosphotyrosine peptides to the PTP domains was studied by Surface Plasmon Resonance on a Biacore-2000 instrument (BIAcore, AB). All experiments were conducted at 25°C. DLAR PTP domains were immobilized onto carboxylated dextran CM5 chips (BIAcore AB) using the standard amine coupling procedure as recommended by the manufacturer. Binding and kinetic assays were performed in 10 mM HEPES, pH 8.0, 150 mM NaCl, 10 mM DTT and 3 mM EDTA at a flow rate of 5 µL/min. The peptides were used at concentrations ranging from 50–700 µM. Dissociation was initiated by replacing the analyte with buffer. The association and dissociation curves were monitored for 600 sec. Sensograms were analyzed with BIA-evaluation software version 2 (BIAcore AB). Sensograms for DLAR D1D2, DLAR D1HSSD2 and DLAR D1D2HSS were fitted to two-site binding equations. DLAR D1 and DLAR D2 sensograms were fitted using a single-site binding model.

For a further assay, the target named is T2, DLAR D1HSS D2 (Drosophila melanogaster, UniProt P16621, C1670S).
T2 construct: DLAR 1448-2029; His tag (pET-15b or pET-22b); made in house; host or cells: E. coli BL21(DE3)
T2 sequence (P16621 1448-2029 C1670S): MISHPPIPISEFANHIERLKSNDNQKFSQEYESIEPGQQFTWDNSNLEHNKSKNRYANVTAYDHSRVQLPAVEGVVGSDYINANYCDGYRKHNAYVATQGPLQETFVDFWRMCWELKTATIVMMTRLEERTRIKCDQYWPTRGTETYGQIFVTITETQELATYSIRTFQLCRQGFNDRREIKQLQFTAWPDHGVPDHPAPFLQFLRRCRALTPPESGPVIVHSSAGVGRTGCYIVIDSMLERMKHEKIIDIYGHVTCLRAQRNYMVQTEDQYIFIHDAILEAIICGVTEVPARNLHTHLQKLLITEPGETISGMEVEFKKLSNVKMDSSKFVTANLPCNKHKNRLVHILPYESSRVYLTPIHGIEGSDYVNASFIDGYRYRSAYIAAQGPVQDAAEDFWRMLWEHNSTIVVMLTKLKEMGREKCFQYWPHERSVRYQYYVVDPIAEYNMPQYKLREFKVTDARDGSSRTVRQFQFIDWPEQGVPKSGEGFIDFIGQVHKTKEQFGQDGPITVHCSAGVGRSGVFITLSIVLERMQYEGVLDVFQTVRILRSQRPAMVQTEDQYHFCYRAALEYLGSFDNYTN
Description: Surface Plasmon Resonance peptide binding, DLAR D1HSS D2. The following applies: two-site model, read-out: ka. Here is the method:
as §1

The target in a further assay is T3, DLAR D1D2 (Drosophila melanogaster, UniProt P16621).
T3 construct: DLAR 1448-2029; His tag (pET-15b or pET-22b); made in house; host or cells: E. coli BL21(DE3)
T3 sequence (P16621 1448-2029): T2 sequence (P16621 1448-2029 C1670S) with S223C
Description: Surface Plasmon Resonance peptide binding, DLAR D1D2. Conditions: two-site model, read-out: ka. Here is the method:
as §1

Where [1] appears, read: pH 8, SPR Biacore-2000, 25°C, 10 mM HEPES pH 8.0, 150 mM NaCl, 10 mM DTT, 3 mM EDTA, peptides 50–700 µM, first binding site.
Setting [2] is: pH 8, SPR, 25°C, pH 8.0, second binding site.

A word on the Kd: it is the free concentration of one partner at which half of the binding sites on the other are occupied at equilibrium, for simple one-to-one binding. Low values mean a tighter complex, high ones a looser complex. With `CC(C)C[C@H](NC(=O)[C@H](C)NC(=O)CNC(=O)[C@H](Cc1ccc(OP(=O)(O)O)cc1)NC(=O)[C@H](CC(=O)O)NC(=O)[C@@H]1CCCN1C(=O)[C@H](CCC(=O)O)NC(=O)[C@H](C)NC(=O)[C@@H](N)[C@@H](C)O)C(=O)N[C@@H](Cc1ccc(O)cc1)C(=O)N[C@@H](CCC(=O)O)C(=O)O` [Cuticle peptide] (H-TAEPD[pY]GALYE-OH), the kon at DLAR D1 (SPR Biacore-2000, 25°C, 10 mM HEPES pH 8.0, 150 mM NaCl, 10 mM DTT, 3 mM EDTA, peptides 50–700 µM, read-out: ka) is 18.6 ± 1.46 M⁻¹ s⁻¹; on DLAR D1HSS D2 (setting [1]) it was 74.7 ± 2.41 M⁻¹ s⁻¹; on DLAR D1HSS D2 (setting [2]), 28800 ± 8e+06 M⁻¹ s⁻¹; on DLAR D1D2 (setting [1]), 32.6 ± 1.57 M⁻¹ s⁻¹; at DLAR D1D2 (setting [2]), 16500 ± 2.3e+07 M⁻¹ s⁻¹. For the same compound, on DLAR D1 (SPR, 25°C, pH 8.0), the Kd was found to be 94.6 ± 0.33 µM.
